Measured values published in PMC10667816, “A Cell‐Penetrant Peptide Disrupting the Transcription Factor CP2c Complexes Induces Cancer‐Specific Synthetic Lethality” (Advanced Science, 2023).
Where a SMILES comes first, the peptide text is derived from it.

Key:
[1] = tested on: hepatocellular carcinoma and breast cancer patient‐derived cancer cells; assay: Sensitivity of patient‐derived cancer cells; type: cell-based, human; conditions: preliminary data
Protocol: For primary cell culture, tumor tissue samples obtained from patients undergoing surgery were finely minced, washed with phosphate buffered saline (PBS) containing penicillin/streptomycin, and then treated with trypsin solution at 37 °C for up to 20 min. The resulting cell suspension was filtered through a strainer (BD Falcon, 352235). The filtered cells were maintained in EpiX media, which consists of keratinocyte serum free medium (KSFM; Gibco, 17005042) supplemented with 50 µg mL^−1 bovine pituitary extract (Gibco, 13028014), 5 ng mL^−1 human epidermal growth factor (EGF; Thermo Fisher, PHG0311L), 1 µM TGF beta inhibitor (A83‐01; Sigma–Aldrich, SML0788), 5 µM ROCK inhibitor (Y27632; Sigma–Aldrich, Y0503), and 3 µM isoproterenol (Sigma–Aldrich, I6504). The culture medium was refreshed daily. For organoid culture, portions of human tissue samples were separated and transported to the laboratory on ice within 1 h of removal from the patients in cold Hank's balanced salt solution (HBSS) with antibiotics. […]

[2] = target: T1, endogenous nuclear and cytoplasmic CP2c complexes (Homo sapiens, UniProt Q12800); assay: DSP crosslinking‐Western blot of endogenous CP2c complexes; type: cell-based; conditions: DSP XL‐WB and WB with new protein synthesis inhibition
T1 construct: dissociated all endogenous nuclear and cytoplasmic CP2c complexes; endogenous in cells
Protocol: Cell extracts were prepared using lysis buffer (50 mM Tris‐HCl, pH 7.4, 150 mM NaCl, 1 mM EDTA, 0.1% triton X‐100, and 1 mM PMSF). The cell extracts were separated by SDS‐PAGE and electro‐blotted onto polyvinylidene difluoride (PVDF) membranes (GE healthcare, 10600069). For slot blotting, the cell extracts were blotted onto nitrocellulose (NC) membranes (GE healthcare, 10484059) using a Bio‐Dot (Bio‐Rad, 1706542). Typically, membranes were blocked with 5% non‐fat dry milk in a solution of 0.1% Tween 20, and with 5% BSA in case of biotin blotting. Membranes were incubated overnight at 4 °C with appropriate dilutions of the primary antibodies (listed in Table S4, Supporting Information) after blocking. The blots were incubated for 1 h at room temperature with the respective HRP‐conjugated secondary antibodies (listed in Table S4, Supporting Information). Polyclonal ACTB antibody was used as a loading control for WB. […] Relative amounts of proteins were quantified using Image J (ver. 1.51) program.
To determine DNA‐free CP2c containing complexes, live cells were washed twice with the 2.5 mM sodium phosphate buffer, pH 7.4, crosslinked using 2 mM DSP in PBS for 3 h on ice, and crosslinking was terminated with 50 mM Tris‐HCl, pH 7.4, for 15 min at room temperature. […] Crosslinked samples were analyzed by pulldown assay or mass spectrometry.

T1 sequence (Q12800 whole entry, one chain of several): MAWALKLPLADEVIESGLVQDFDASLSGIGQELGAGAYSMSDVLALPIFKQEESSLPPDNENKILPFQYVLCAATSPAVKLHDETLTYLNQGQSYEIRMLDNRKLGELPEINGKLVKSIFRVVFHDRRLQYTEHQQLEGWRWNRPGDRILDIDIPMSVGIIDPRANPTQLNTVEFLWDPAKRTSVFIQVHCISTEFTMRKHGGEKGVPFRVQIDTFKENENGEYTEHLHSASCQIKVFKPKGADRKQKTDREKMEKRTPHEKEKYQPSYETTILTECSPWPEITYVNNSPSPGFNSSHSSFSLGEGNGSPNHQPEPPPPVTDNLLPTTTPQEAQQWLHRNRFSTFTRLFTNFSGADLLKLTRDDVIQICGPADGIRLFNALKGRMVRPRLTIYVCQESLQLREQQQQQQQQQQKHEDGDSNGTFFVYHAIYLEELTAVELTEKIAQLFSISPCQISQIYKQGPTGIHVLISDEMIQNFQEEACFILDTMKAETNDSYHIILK

For CC(=O)N[C@@H](CC(N)=O)C(=O)N[C@@H](Cc1ccc(O)cc1)C(=O)N1CCC[C@H]1C(=O)N[C@@H](CCC(N)=O)C(=O)N[C@@H](CCCNC(=N)N)C(=O)N1CCC[C@H]1C(=O)N[C@@H](CS)C(=O)N[C@@H](CCCNC(=N)N)C(=O)NCC(=O)N[C@@H](CC(=O)O)C(=O)N[C@@H](CCCCN)C(=O)NCC(=O)N1CCC[C@H]1C(=O)N[C@@H](CC(=O)O)C(=O)N[C@@H](CS)C(N)=O [ACP52C] (Ac-NYPQRPCRGDKGPDC-NH2), the “fraction of patient‐derived cancer cells showing sensitivity” value [1] was “over 85%” and the “dissociation of endogenous CP2c complexes” value [2] was “readily dissociated all endogenous nuclear and cytoplasmic CP2c complexes”.
